# Measurements: patent publication US4665075A, “Derivatives of hydroxy- or amino-substituted (piperidinylalkyl)quinazolines” (Janssen Pharmaceutica N.V., priority 1985, dated 1987)
# Experiments:
# [1] = test system: serotonin-induced contraction of the caudal artery of the rat; test: Test 1: Antagonistic activity on the effect of serotonin on the caudal artery of the rat; details: rat caudal artery strips; serotonin 40 ng/ml; measured 5 minutes after adding the drug
# Protocol: Test 1: Antagonistic activity on the effect of serotonin on the caudal artery of the rat
# Caudal arteries from fasted male rats (210-235 g) were used in the test. Two helical strips having a length of 5-6 cm and a width of 2 mm were obtained from each artery and mounted vertically in a 100 ml organ bath containing an oxygenated Krebs-Henseleit solution. Submaximal contractions of the arterial strips were produced by adding single doses of serotonin (40 ng/ml) to the organ bath for 2 minutes with each time an interval of 10 minutes. The amplitude of the contraction is measured before and 5 minutes after adding the drug. After washing out, the agonist was added again three times in order to see whether the contraction is restored and normalized.
# In this connection the ED50 -values are the minimal concentrations of the concerned drugs which reduce the amplitude of the contraction to at least 50% of its normal value.
# [2] = test system: gastric lesions induced by compound 48/80; test: Test 2: Effects in gastric lesion tests; lesions induced by compound 48/80; format: in vivo, rat (male, Wistar inbred strain); details: oral, 2 hours before compound 48/80 1 mg/kg i.v.; stomachs inspected 4 hours later
# Protocol: Test 2: Effects in gastric lesion tests
# The shock, followed by dead, can be avoided if the rats are pretreated with a classical H1 antagonist.
# Male rats of a Wistar inbred strain, weighing 220-250 g, were starved overnight, water being available ad libitum. The test compounds were administered orally as a solution or as a suspension in aqueous medium. A control rat and a "blank" rat receive the test compound. One hour later 5-[4-(diphenylmethyl)-1-piperazinyl-methyl]-1-methyl-1H-benzimidazole-2-methanol is adhministered subcutaneously to all rats at the dose of 2.5 mg/kg. […] Five minutes after the injection the intensity of purple-blue coloration (cyanosis) of the extremities was scored as 0 (absent), + (moderate) or ++ (intense). Four hours after the intravenous injection of compound 48/80 the rats were decapitated and the stomachs were removed. Subsequently the stomachs were inspected for distension and contents (blood, fluid, food) and thoroughly rinsed. The macroscopic lesions were scored from 0 to +++, 0 corrsponding to complete absence of visible lesions and the highest score corresponding to reddish rough patches covering more than half the glandular area.
# The compounds listed in table 1 are not given for the purpose of limiting the invention thereto but only to exemplify the useful pharmacological activities of all the compounds within the scope of formula (I).
# [3] = test system: cyanosis, gastric lesions and shock induced by compound 48/80; details: rats injected with compound 48/80; cited from earlier work
structure (smiles),measurement,setting,value
"Nc1ccc2c(=O)n(CCCCN3CCC(C(=O)c4ccc(F)cc4)CC3)c(=O)[nH]c2c1 [Compound 8, 7-amino-3-[4-[4-(4-fluorobenzoyl)-1-piperidinyl]butyl]-2,4(1H,3H)-quinazolinedione]",Caudal artery ED50 (minimal concentration which reduces the amplitude of the serotonin-induced contraction to at least 50% of its normal value),[1],0.32 ng/mL
same,Gastric lesion ED50 (dose at which distension of the stomach and lesions in the glandular area are completely absent in 50% of the test rats),[2],0.04 mg/kg
"Nc1ccc2c(=O)n(CCN3CCC(C(=O)c4ccc(F)cc4)CC3)c(=S)[nH]c2c1 [Compound 9, 7-amino-3-[2-[4-(4-fluorobenzoyl)-1-piperidinyl]ethyl]-2,3-dihydro-2-thioxo-4(1H)-quinazolinone]",Caudal artery ED50 (minimal concentration which reduces the amplitude of the serotonin-induced contraction to at least 50% of its normal value),[1],0.18 ng/mL
same,Gastric lesion ED50 (dose at which distension of the stomach and lesions in the glandular area are completely absent in 50% of the test rats),[2],0.005 mg/kg
"Nc1ccc2c(=O)n(CCCCN3CCC(C(=O)c4ccc(F)cc4)CC3)c(=S)[nH]c2c1 [Compound 11, 7-amino-3-[4-[4-(4-fluorobenzoyl)-1-piperidinyl]butyl]-2,3-dihydro-2-thioxo-4(1H)-quinazolinone]",Caudal artery ED50 (minimal concentration which reduces the amplitude of the serotonin-induced contraction to at least 50% of its normal value),[1],< 0.63 ng/mL
same,Gastric lesion ED50 (dose at which distension of the stomach and lesions in the glandular area are completely absent in 50% of the test rats),[2],0.63 mg/kg
"Nc1ccc2c(=O)n(CCN3CCC(C(=O)c4ccc(F)cc4)CC3)c(=O)[nH]c2c1 [Compound 12, 7-amino-3-[2-[4-(4-fluorobenzoyl)-1-piperidinyl]ethyl]-2,4(1H,3H)-quinazolinedione]",Caudal artery ED50 (minimal concentration which reduces the amplitude of the serotonin-induced contraction to at least 50% of its normal value),[1],< 0.63 ng/mL
same,Gastric lesion ED50 (dose at which distension of the stomach and lesions in the glandular area are completely absent in 50% of the test rats),[2],0.04 mg/kg
"CC(=O)Nc1ccc2c(=O)n(CCCCN3CCC(C(=O)c4ccc(F)cc4)CC3)c(=O)[nH]c2c1 [Compound 18, N-[3-[4-[4-(4-fluorobenzoyl)-1-piperidinyl]butyl]-1,2,3,4-tetrahydro-2,4-dioxo-7-quinazolinyl]-acetamide]",Caudal artery ED50 (minimal concentration which reduces the amplitude of the serotonin-induced contraction to at least 50% of its normal value),[1],0.32 ng/mL
same,Gastric lesion ED50 (dose at which distension of the stomach and lesions in the glandular area are completely absent in 50% of the test rats),[2],0.08 mg/kg
"CC(=O)Nc1ccc2c(=O)n(CCN3CCC(C(=O)c4ccc(F)cc4)CC3)c(=S)[nH]c2c1 [Compound 19, N-[3-[2-[4-(4-fluorobenzoyl)-1-piperidinyl]ethyl]-1,2,3,4-tetrahydro-4-oxo-2-thioxo-7-quinazolinyl]acetamide]",Caudal artery ED50 (minimal concentration which reduces the amplitude of the serotonin-induced contraction to at least 50% of its normal value),[1],0.32 ng/mL
same,Gastric lesion ED50 (dose at which distension of the stomach and lesions in the glandular area are completely absent in 50% of the test rats),[2],0.01 mg/kg
CC(=O)Nc1ccc2c(=O)n(CCN3CCC(C(=O)c4ccc(F)cc4)CC3)c(=O)[nH]c2c1 [Compound 22],Caudal artery ED50 (minimal concentration which reduces the amplitude of the serotonin-induced contraction to at least 50% of its normal value),[1],0.37 ng/mL
same,Gastric lesion ED50 (dose at which distension of the stomach and lesions in the glandular area are completely absent in 50% of the test rats),[2],0.04 mg/kg
CN(C)CCCSc1ccccc1NC(=O)/C=C/c1ccccc1 [cinanserin],prevention of the abnormal gastric distension,[3],prevent completely
same,prevention of the cyanosis of ears and extremities,[3],prevent completely
same,prevention of the lesions in the glandular area of the stomach,[3],prevent completely
CN1CCC(=C2c3ccccc3C=Cc3ccccc32)CC1 [cyproheptadine],prevention of the abnormal gastric distension,[3],prevent completely
same,prevention of the cyanosis of ears and extremities,[3],prevent completely
same,prevention of the lesions in the glandular area of the stomach,[3],prevent completely
CN1C[C@H](CNC(=O)OCc2ccccc2)C[C@@H]2c3cccc4c3c(cn4C)C[C@H]21 [metergoline],prevention of the abnormal gastric distension,[3],prevent completely
same,prevention of the cyanosis of ears and extremities,[3],prevent completely
same,prevention of the lesions in the glandular area of the stomach,[3],prevent completely
CC[C@@H](CO)NC(=O)[C@@H]1C=C2c3cccc4c3c(cn4C)C[C@H]2N(C)C1 [methysergide],prevention of the abnormal gastric distension,[3],prevent completely
same,prevention of the cyanosis of ears and extremities,[3],prevent completely
same,prevention of the lesions in the glandular area of the stomach,[3],prevent completely
CN1CCN2c3ccccc3Cc3ccccc3C2C1 (centres unmarked) [mianserin],prevention of the abnormal gastric distension,[3],prevent completely
same,prevention of the cyanosis of ears and extremities,[3],prevent completely
same,prevention of the lesions in the glandular area of the stomach,[3],prevent completely
NC(=O)C1(N2CCCCC2)CCN(CCCC(=O)c2ccc(F)cc2)CC1 [pipamperone],prevention of the abnormal gastric distension,[3],prevent completely
same,prevention of the cyanosis of ears and extremities,[3],prevent completely
same,prevention of the lesions in the glandular area of the stomach,[3],prevent completely
CN1CCC(=C2c3ccccc3CCc3sccc32)CC1 [pizotifen],prevention of the abnormal gastric distension,[3],prevent completely
same,prevention of the cyanosis of ears and extremities,[3],prevent completely
same,prevention of the lesions in the glandular area of the stomach,[3],prevent completely
O=C(CCCN1CCC2(CC1)C(=O)NCN2c1ccccc1)c1ccc(F)cc1 [spiperone],prevention of the abnormal gastric distension,[3],prevent completely
same,prevention of the cyanosis of ears and extremities,[3],prevent completely
same,prevention of the lesions in the glandular area of the stomach,[3],prevent completely
